{
  "source": "patent US12382954B2",
  "about": "“Pinocembrin dihydrochalcone and compositions thereof and their use as pesticides” (METABOLIC INSIGHTS LTD., priority 2019, dated 2025)",
  "key": {"Fusarium oxysporum [1]": {"test_system": "Fusarium oxysporum", "format": "cell-based", "details": "50 ppm"}, "Phytophthora infestans [2]": {"test_system": "Phytophthora infestans", "format": "cell-based", "details": "50 ppm, tomato leaf discs, % of maximal value (grade x repeats/12)"}, "Pseudomonas syringae": {"test_system": "Pseudomonas syringae", "format": "cell-based", "details": "50 ppm"}, "Mizus Persicae": {"test_system": "Mizus Persicae", "test": "In-vitro screening matrix, Mizus Persicae", "details": "50 ppm"}, "Pythium aphanidermatum [3]": {"test_system": "Pythium aphanidermatum", "test": "In planta validation, cucumber seedlings infected with Pythium aphanidermatum (soil drench)", "format": "in vivo", "details": "4 days after infection, 150 ppm-500 ppm, 2 independent experiments"}, "Sclerotinia sclerotiorum": {"test_system": "Sclerotinia sclerotiorum", "format": "cell-based", "details": "50 ppm"}, "Phytophthora infestans [4]": {"test_system": "Phytophthora infestans", "format": "in vivo", "details": "tomato detached leaf experiment, 500-1000 ppm, spray on leaves, 6 days after infection"}, "Puccinia triticina": {"test_system": "Puccinia triticina", "format": "cell-based", "details": "50 ppm"}, "[5]": {"test_system": "Pseudoperonospora cubensis", "format": "cell-based", "details": "50 ppm"}, "Pythium aphanidermatum [6]": {"test_system": "Pythium aphanidermatum", "format": "cell-based", "details": "50 ppm"}, "Puccinia sorghi": {"test_system": "Puccinia sorghi", "format": "cell-based", "details": "50 ppm"}, "Xanthomonas campestris": {"test_system": "Xanthomonas campestris", "format": "cell-based", "details": "50 ppm"}, "Fusarium oxysporum [7]": {"test_system": "Fusarium oxysporum", "test": "In planta validation, cucumber seedlings infected with Fusarium oxysporum", "format": "in vivo", "details": "3 weeks after infection, 3 independent experiments"}, "Spodoptera litoralis": {"test_system": "Spodoptera litoralis", "test": "In-vitro screening matrix, Spodoptera litoralis", "details": "50 ppm"}, "[8]": {"test_system": "Pectobacterium carotovorum", "format": "cell-based", "details": "50 ppm"}, "Rhizoctonia solani": {"test_system": "Rhizoctonia solani", "format": "cell-based", "details": "50 ppm"}, "Botrytis cinerea": {"test_system": "Botrytis cinerea", "format": "cell-based", "details": "50 ppm"}},
  "data": [
    {"molecule": "O=C(CCc1ccccc1)c1c(O)cc(O)cc1O", "note": "[Pinocembrin dihydrochalcone, 3-phenyl-1-(2,4,6-trihydroxyphenyl)propan-1-one]", "values": [
      {"measurement": "Relative Activity value (%)", "setting": "Fusarium oxysporum [1]", "value": 9, "unit": "%"},
      {"measurement": "Relative Activity value (%)", "setting": "Phytophthora infestans [2]", "value": 100, "unit": "%"},
      {"measurement": "Relative Activity value (%)", "setting": "Pseudomonas syringae", "value": 6, "unit": "%"},
      {"measurement": "Relative Activity value (%)", "setting": "Mizus Persicae", "value": 0, "unit": "%"},
      {"measurement": "range of efficacy in preventing and controlling the Pythium disease", "setting": "Pythium aphanidermatum [3]", "value": "up to 100%"},
      {"measurement": "Relative Activity value (%)", "setting": "Sclerotinia sclerotiorum", "value": 6, "unit": "%"},
      {"measurement": "control of Phytophthora infestans", "setting": "Phytophthora infestans [4]", "value": "up to 100%"},
      {"measurement": "Relative Activity value (%)", "setting": "Puccinia triticina", "value": 19, "unit": "%"},
      {"measurement": "Relative Activity value (%)", "setting": "[5]", "value": 50, "unit": "%"},
      {"measurement": "Relative Activity value (%)", "setting": "Pythium aphanidermatum [6]", "value": 100, "unit": "%"},
      {"measurement": "Relative Activity value (%)", "setting": "Puccinia sorghi", "value": 0, "unit": "%"},
      {"measurement": "Relative Activity value (%)", "setting": "Xanthomonas campestris", "value": 50, "unit": "%"},
      {"measurement": "range of efficacy in preventing and controlling the Fusarium diseases", "setting": "Fusarium oxysporum [7]; 100 ppm and 200 ppm", "value": "66-100%"},
      {"measurement": "range of efficacy in preventing and controlling the Fusarium diseases", "setting": "Fusarium oxysporum [7]; 300 ppm", "value": "88-100%"},
      {"measurement": "Relative Activity value (%)", "setting": "Spodoptera litoralis", "value": 0, "unit": "%"},
      {"measurement": "Relative Activity value (%)", "setting": "[8]", "value": 12, "unit": "%"},
      {"measurement": "Relative Activity value (%)", "setting": "Rhizoctonia solani", "value": 6, "unit": "%"},
      {"measurement": "Relative Activity value (%)", "setting": "Botrytis cinerea", "value": 0, "unit": "%"}
    ]}
  ]
}
